Patent US20220362174A1, “Use of R-enantiomer Beta2-agonists for prevent and treatment of pulmonary inflammation and inflammatory remodeling for reduced adverse effects” (priority 2019, published 2022)
“Also recorded” adds a separate entry of the source.

Assays:
[1] = tested on: OVA induced asthma mice; test: Combination therapy of ipratropium with R- and S-salbutamol: lung histopathology (Masson, PAS); format: in vivo
Experimental: (§1) Left lung tissue was obtained for histopathology and fixed in 10% formalin for 24 h, followed by paraffin-embedded and then were sectioned at 4 μm for routine staining with hematoxylin and eosin (H&E, Solarbio, Beijing, China), or with periodic acid-Schiff (PAS, Solarbio, Beijing, China), or submitted to Masson's trichrome staining (Baso, Zhuhai, China). Images of the stained lung sections were obtained by an Axisplus image-capturing system (Zeiss, Germany) and then a minimum of 3 bronchi (luminal diameter, 150-500 μm) were analyzed per mice for various parameters using an image analyzing computer system (IPP) by pathologists blinded to grouping. Histological score, airway smooth muscle thickness, PAS score (goblet cells hyperplasia), and collagen deposition were evaluated by a semi-quantitative scoring method.
Methods used were similar as mentioned above. Nebulized aerosol of saline, Methacholine 2 mg/ml (low dose) or 10 mg/ml (high dose) were given via inhalation to OVA induced asthma mice.

[2] = tested on: LPS-induced RAW264.7 cells; test: Intracellular ROS (DCFH-DA); format: cell-based; details: LPS-induced cells
Experimental: (§2) Macrophages were treated without or with (R)/(S)-salbutamol for 1 h prior to LPS stimulation and subsequently incubated for 12 h. […] The fluorescence of the oxidized product (2′,7′-dichlorofluorescein, DCF) was assessed using an LSM710 Laser Scanning Confocal Microscope (Carl Zeiss, Jena, Germany). The concentration of NO in the culture supernatant was measured by assaying the concentrations of nitrite (a stable NO breakdown product) using the Griess assay (Beyotime, Shanghai, China), according to the manufacturer's instructions. The intracellular NO level was detected using the NO-sensitive fluorescence probe DAF-FM DA (Sigma, St. Louis, Mo., USA) (24). Cells were labeled with DAF-FM DA (10 μM) at 37° C. for 30 min and were gently washed three times with PBS. Fluorescence was detected using a LSM710 Laser Scanning Confocal Microscope (Scale bars, 100 μm) (Carl Zeiss, Jena, Germany).
LPS can promote cell apoptosis through mitochondrial dysfunction, and mitochondria are the major source of ROS.

[3] = tested on: BALB/c mice; test: Survival study after LPS challenge (sepsis); format: in vivo; details: for Percent of death after LPS challenges, 12 h: Saline + LPS 0; for Percent of death after LPS challenges, 24 h: Saline + LPS 36.4; for Percent of death after LPS challenges, 36 h: Saline + LPS 72.7; for Percent of death after LPS challenges, 48 h / Percent of death after LPS challenges, 72 h / Percent of death after LPS challenges, 144 h: Saline + LPS 90.9
Experimental: Treatment were given intraperitoneally for 3 consecutive days. One hour after the 3rd day treatments, LPS (15 mg/kg) was administered intraperitoneally. The animals were monitored. Survival rate was then recorded every 12 h for 144 hours.

[4] = tested on: LPS-induced RAW264.7 cells; test: NO production (DAF-FM DA probe, Griess assay); format: cell-based; details: LPS-induced cells
Experimental: as §2
In addition, the concentration of NO in the culture supernatant was measured by assaying the concentrations of nitrite (a stable NO breakdown product) using the Griess assay. […] To investigate (R)-salbutamol role on the level of iNOS, the mRNA and protein levels of iNOS were determined.

[5] = tested on: OVA induced asthma mice; test: Combination therapy of ipratropium with RS-, R- and S-salbutamol: airway resistance in response to methacholine; format: in vivo; details: for increase in airway resistance after treatment: response to methacholine, OVA + Saline 445%
Experimental: OVA sensitized/challenged asthma model Mice were sensitized and challenged with ovalbumin (OVA) or normal saline. […] On days 21, 22 and 23, the mice were challenged with 1% OVA in saline (0.01 g/mL) for 20 min via. a nebulizer (PART Turbo boy). […] In vivo airway responsiveness to methacholine (Mch) was assessed on day 28 in conscious, freely moving, spontaneously breathing mice by a whole-body plethysmography (Buxco Electronics Inc.). […] Before Mch challenge, a 20 μL drug aerosol or saline was given to the mice because of the short-acting bronchodilating effect of terbutaline. The degree of bronchoconstriction was expressed as enhanced pause (Penh), a calculated dimensionless value that correlates with measurement of airway resistance, impedance, and intrapleural pressure. […] Methods used were similar as mentioned above. Nebulized aerosol of saline, Methacholine 2 mg/ml (low dose) or 10 mg/ml (high dose) were given via inhalation to OVA induced asthma mice.

[6] = tested on: LPS-induced macrophage RAW264.7 cells; test: M1 macrophage cytokines (TNF-α, IL-1β, MCP-1) by ELISA; format: cell-based; details: LPS challenge
Experimental: as §2
To confirm that M1 polarization was predominant over M2 polarization after stimulation with LPS, the levels of typical M1 macrophage cytokines (i.e., TNF-α, IL-1β and MCP-1) were quantified using ELISA; these cytokines are mainly synthesized by macrophages and play an important role in inflammatory diseases (35,36). This invention disclosed that TNF-α […] from 2.62-fold to 0.75-fold of control levels following LPS stimulation (FIG. 8A). IL-1β is a hallmark of many chronic inflammatory diseases in humans and is reportedly associated with acute phase reactions (35,37). […] We conclude that LPS is likely to lead to M1 polarization but not M2 polarization.

[7] = tested on: LPS-induced RAW264.7 cells; test: M1/M2 macrophage polarization by flow cytometry; format: cell-based; details: pretreated prior to LPS 100 ng/mL; basal 24.7%, LPS 59.2%; (R)-salbutamol 10 μM
Experimental: as §2
Macrophages M1 (F4/80+/CD11c+/CD206−) and M2 (F4/80+/CD11c−/CD206+) polarization were analyzed using flow cytometry.

[8] = tested on: BALB/c mice; test: Lung function measurements 6 hours after LPS (Buxco); format: in vivo; details: 5.0 mg/kg
Experimental: Methods: Survival study: […] Treatment were given intraperitoneally for 3 consecutive days. […] The animals were monitored. Survival rate was then recorded every 12 h for 144 hours. The lung functions were measured with using Buxco system (Buxco Electronics, USA). After a brief acclimation to the chamber, the mice received an initial baseline challenge of saline. Measures were made at 6 hours after administration of LPS, including tidal volume and Penh which is an indication of airway resistance.

[9] = tested on: macrophages from the peritoneal fluid; test: LPS-induced proliferation and polarization of macrophages from the peritoneal fluid (sepsis); format: in vivo; details: in comparison of sepsis condition
Description: Macrophage activation and proliferation was considered to be the key step of initiation and development of sepsis. In one embodiment, LPS (PAMPs from bacteria) induced a proliferation and polarization of macrophages from the peritoneal fluid. […] These inhibitory effects can be blocked by using specific β2-recepter blocker.

[10] = tested on: OVA-sensitized/OVA-challenged mice; test: Airway responsiveness to methacholine by whole-body plethysmography (Penh) in OVA sensitized/challenged asthma model; format: in vivo
Experimental: (§3) OVA sensitized/challenged asthma model Mice were sensitized and challenged with ovalbumin (OVA) or normal saline. Briefly, mice were sensitized by intraperitoneal (i.p.) injection of 0.2 mL of 2% aluminum hydroxide (ALUM) gel containing 10 μg of OVA antigen on days 0 and 14. On days 21, 22 and 23, the mice were challenged with 1% OVA in saline (0.01 g/mL) for 20 min via. a nebulizer (PART Turbo boy). On day 26, a 20 min nebulized OVA challenge with 5% OVA in saline (0.05 g/mL) was conducted. The control group received 0.2 mL of saline with 2% ALUM administered intraperitoneally on days 0 and 14 before receiving 20 min nebulized normal saline without OVA on days 21, 22, 23 and 26.
In vivo airway responsiveness to methacholine (Mch) was assessed on day 28 in conscious, freely moving, spontaneously breathing mice by a whole-body plethysmography (Buxco Electronics Inc.). Mice were challenged with aerosolized saline or increasing concentrations of Mch (2, 10, 20 mg/mL) administered by an ultrasonic nebulizer for 2 min. Before Mch challenge, a 20 μL drug aerosol or saline was given to the mice because of the short-acting bronchodilating effect of terbutaline. The degree of bronchoconstriction was expressed as enhanced pause (Penh), a calculated dimensionless value that correlates with measurement of airway resistance, impedance, and intrapleural pressure. Penh values were recorded and averaged for 4 min after each nebulization challenge.

[11] = tested on: p38 MAPK; test: Western blot of lung tissue: p38 MAPK phosphorylation; format: in vivo, mice; details: vs OVA group
Experimental: as §3
Total protein from lung tissue was extracted according to the guidelines of manufacturer (Beyotime, China) and the concentrations were determined by BCA assay (Pierce). Primary antibodies against p38 MAPK (CST #8690), p-p38 MAPK (Thr180/Tyr182, CST #4511), NF-κB p65 (GeneTex #GTX102090), p-NF-κB p65 (S536, CST #3033) and GAPDH (Affinity #AF7021) as a standard were purchased and used.

[12] = tested on: OVA-sensitized/OVA-challenged mice; test: Whole blood analysis and eosinophils counts in BAL fluid; format: in vivo; details: OVA asthma mice after repeated inhalation
Experimental: as §3
After Methacholine challenge, mice were anesthetized, blood was collected for hematology analysis. Part of the collected blood was transferred to a heparinized Eppendorf tube, gently mixed and centrifuged under 845×g at 4° C. for 10 min to isolate plasma specimen for further analysis. Broncho alveolar lavage (BAL) was performed on the right lung using 0.3 mL of phosphate buffered saline (PBS) for four times. The saline was instilled into the lungs and allowed to equilibrate for 30 s before recovery, after centrifugation supernatants were stored at −80° C. for further cytokines analysis while cell pellet was suspended in 0.5 ml PBS and the eosinophils counts were performed using Wright's stain. Then all the organs (liver, right lung lobe, spleen, kidneys, heart, brain) were excised surgically and washed totally with ice-cold PBS to clear the blood and then blotted dry with filter paper. These tissue specimens were then accurately weighted and stored at −80° C. for detecting the drug distribution by LC-MS/MS. White blood cell (WBC) counts and differential WBC counts were analyzed using a ProCyte Dx Hematology Analyzer (IDEXX Laboratories) in 4 h after blood collection.

[13] = tested on: OVA-sensitized/OVA-challenged mice; test: Lung histopathology (H&E, PAS, Masson) after R-, S-, rac-terbutaline; format: in vivo
Experimental: as §3, §1

`CC(C)(C)NC[C@@H](O)c1ccc(O)c(CO)c1` [S-salbutamol, (S)-salbutamol, reference compound] was tested, and the “PAS staining: goblet cell hyperplasia, mucus over secretion, airway edema” value ([1]; vs OVA model) was “further worsen the inflammatory condition”, the “Masson staining: collagen deposition, wall thickness of bronchiole and vascular vessels” value ([1]; vs ova (model) group) was “further worsens the inflammatory conditions and further increased the wall thickness” and the “production/levels of ROS (in words)” value [2] was “increased”. The “Percent of death after LPS challenges, 12 h” value ([3]; 0.5 mg/kg + LPS) was 0%, the “Percent of death after LPS challenges, 24 h” value ([3]; 0.5 mg/kg + LPS) was 36.4% and the “Percent of death after LPS challenges, 36 h” value ([3]; 0.5 mg/kg + LPS) was 90.9%. The “Percent of death after LPS challenges, 48 h” value ([3]; 0.5 mg/kg + LPS) was 90.9%, the “Percent of death after LPS challenges, 72 h” value ([3]; 0.5 mg/kg + LPS) was 90.9% and the “Percent of death after LPS challenges, 144 h” value ([3]; 0.5 mg/kg + LPS) was 90.9%. For the same compound, the “rate of mortality/death after LPS challenge (in words)” value ([3]; in comparison of LPS challenged group without pretreatment (mortality 90.9%)) was “same rate of death at 48 hours; also recorded: higher rate of death at 36 h”, the “production/levels of NO (in words)” value [4] was “increased” and the “increase in airway resistant in response to methacholine (in words)” value [5] was “much greater; also recorded: further enhance the airway response to methacholine”. For the same compound, the “increase in airway resistance after treatment” value [5] was 486%, the “release and expression of cytokines in LPS induced M1 macrophages (in words)” value [6] was “had the opposite effects” and the “release and expression of cytokines in LPS induced M1 macrophages (in words)” value ([6]; listed as S-albuterol) was “increased the release of cytokines”. For the same compound, the “prevalence of M1 macrophages (F4/80+/CD11c+/CD206−)” value [7] was “facilitated macrophage polarization”.

With `C[C@@H]1C[C@H]2[C@@H]3CCC4=CC(=O)C=C[C@]4(C)[C@@]3(F)[C@@H](O)C[C@]2(C)[C@@]1(O)C(=O)CO` [Dexamethasone, dexamethasone, reference compound] the “Percent of death after LPS challenges, 12 h” value ([3]; 5.0 mg/kg + LPS) was 0%, the “Percent of death after LPS challenges, 24 h” value ([3]; 5.0 mg/kg + LPS) was 90.9% and the “Percent of death after LPS challenges, 36 h” value ([3]; 5.0 mg/kg + LPS) was 90.9%. The “Percent of death after LPS challenges, 48 h” value ([3]; 5.0 mg/kg + LPS) was 100%, the “Percent of death after LPS challenges, 72 h” value ([3]; 5.0 mg/kg + LPS) was 100% and the “Percent of death after LPS challenges, 144 h” value ([3]; 5.0 mg/kg + LPS) was 100%. The Tidal volume ([8]; LPS + saline 0.13 ± 0.03) was 0.15 ± 0.04 mL and the Penh ([8]; LPS + saline 1.31 ± 0.40) was 1.01 ± 0.46.

`OCc1cc([C@H](O)CNCCCCCCOCCCCc2ccccc2)ccc1O` [(S)-salmeterol, reference compound] was tested, and the “polarized M1 macrophages or M2 macrophages” value [9] was “further increased”.

With `CC(C)(C)NCC(O)c1cc(O)cc(O)c1` (racemic) [rac-terbutaline, terbutaline] the “airway bronchoconstriction/hyperactivity (Penh) in response to increased doses of Mch” value ([10]; Mch 2, 10, 20 mg/mL aerosol, rac-ter at double dose of R-ter) was “much less effect”, the “baseline Penh value (baseline airway reactivity)” value ([10]; exposure to saline, after 7 days inhalation pretreatment, OVA group 0.80±0.12, Control group 0.55±0.08, rac-terbutaline at double molar amount) was “significantly reduce” and the “p38 MAPK phosphorylation (ratio of phosphorylated to total p38 MAPK)” value [11] was “much less effects”. The “per cent of eosinophil counts in blood and BALF” value ([12]; listed as RS(rac)-terbutaline) was “significantly higher”, the “per cent of eosinophil counts in blood and BALF” value ([12]; listed as racemic terbutaline) was “less but similar effects as S-terbutaline” and the “PAS stain of lung tissues: inflammatory and histopathological changes, collagen deposition” value ([13]; Example 3, vs model) was “significant less beneficial effects”. For the same compound, the “degree of inflammatory cell infiltration (H&E, histological score)” value ([13]; rac-terbutaline at double dose) was “ameliorated” and the “PAS and Masson staining: subepithelial matrix glycoproteins, goblet cell hyperplasia, collagen deposition” value ([13]; vs OVA group) was “much less or not effective”.

For `CC(C)(C)NCC(O)c1ccc(O)c(CO)c1` (racemic) [RS salbutamol, salbutamol], the “increase in airway resistance after treatment” value [5] was 214%.
